Laboratory results taken from patent publication US20250221410A1, “SUBSTITUTED 2-C-AZINES AND SALTS THEREOF, AND USE THEREOF AS HERBICIDAL ACTIVE SUBSTANCES” (BAYER AKTIENGESELLSCHAFT, priority 2022, published 2025).

Experiments:
Format in all cases: in vivo
[1] = tested on: AMARE: Amaranthus retroflexus; test: Post-emergence herbicidal efficacy at 80 g/ha, AMARE; details: visual rating about 3 weeks after treatment vs untreated controls
Procedure: (§1) Seeds of monocotyledonous and dicotyledonous weeds and crop plants were placed in sandy loam in plastic or organic planting pots, covered with soil and cultivated in a greenhouse under controlled growth conditions. 2 to 3 weeks after sowing, the test plants were treated at the one-leaf stage. The compounds of the invention, formulated in the form of wettable powders (WP) or as emulsion concentrates (EC), were then sprayed onto the green parts of the plants as aqueous suspension or emulsion with addition of 0.5% additive at a water application rate of 600 l/ha (converted). After the test plants had been kept in the greenhouse under optimum growth conditions for about 3 weeks, the activity of the preparations was rated visually in comparison to untreated controls. For example, 100% activity=the plants have died, 0% activity=like control plants. Tables B1 to B10 below show the effects of selected compounds of the general formula (I) according to Table 1 on various harmful plants and an application rate corresponding to 80 g/ha, which were obtained by the experimental procedure mentioned above.

[2] = tested on: VERPE: Veronica persica; test: Post-emergence herbicidal efficacy at 80 g/ha, VERPE; details: visual rating about 3 weeks after treatment vs untreated controls
Procedure: as §1

[3] = tested on: AMARE: Amaranthus retroflexus; test: Pre-emergence herbicide efficacy at 80 g/ha, AMARE; details: scored visually after about 3 weeks
Description: Seeds of monocotyledonous and dicotyledonous weed plants and crop plants were placed in plastic or organic planting pots and covered with soil. The compounds of the invention, formulated in the form of wettable powders (WP) or as emulsion concentrates (EC), were then applied to the surface of the covering soil as aqueous suspension or emulsion with addition of 0.5% additive at a water application rate equivalent to 600 l/ha. After the treatment, the pots were placed in a greenhouse and kept under good growth conditions for the test plants. After about 3 weeks, the efficacy of the preparations was scored visually in comparison with untreated controls as percentages. For example, 100% activity=the plants have died, 0% activity=like control plants. Tables D1 to D12 below show the effects of selected compounds of the general formula (I) according to Table 1 on various harmful plants and an application rate corresponding to 80 g/ha, which were obtained by the experimental procedure mentioned above.

[4] = tested on: AMARE: Amaranthus retroflexus; test: Pre-emergence herbicide efficacy at 1280 g/ha, AMARE; details: visual scoring after about 3 weeks vs untreated controls
Method in brief: (§2)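 Weed seeds were sown in sandy loam, covered with soil, and the soil surface was treated with the compound, formulated as wettable powder or emulsion concentrate, in water containing 0.5% additive at 600 L/ha. Plants then grew in the greenhouse for roughly 3 weeks before percentage efficacy was scored by eye against untreated controls.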

[5] = tested on: MATIN: Matricaria inodora; test: Pre-emergence herbicide efficacy at 1280 g/ha, MATIN; details: visual scoring after about 3 weeks vs untreated controls
Description: Seeds of mono- and dicotyledonous weed plants were placed in plastic pots in sandy loam soil (doubly sown with one species each of mono- or dicotyledonous weed plants per pot) and covered with soil. The compounds of the invention, formulated in the form of wettable powders (WP) or as emulsion concentrates (EC), were then applied to the surface of the covering soil as aqueous suspension or emulsion with addition of 0.5% additive at a water application rate of 600 litres per hectare (converted). After the treatment, the pots were placed in a greenhouse and kept under good growth conditions for the test plants. After about 3 weeks, the efficacy of the preparations was scored visually in comparison with untreated controls as percentages. For example, 100% activity=the plants have died, 0% activity=like control plants. Tables C1 to C12 below show the effects of selected compounds of the general formula (I) according to Table 1 on various harmful plants and at an application rate corresponding to 1280 g/ha, which were obtained by the trial procedure specified above.

[6] = tested on: POAAN: Poa annua; test: Post-emergence herbicidal efficacy at 1280 g/ha, POAAN; details: visual rating about 3 weeks after treatment vs untreated controls
Method in brief: (§3)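 Visual damage rating was made roughly 3 weeks after treatment, relative to untreated plants, on a scale where 0% means no effect and 100% means plants died. Foliar application was at the one-leaf stage as an aqueous WP/EC spray with 0.5% additive at 600 L/ha water, on greenhouse-grown pot plants.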

[7] = tested on: POAAN: Poa annua; test: Pre-emergence herbicide efficacy at 1280 g/ha, POAAN; details: visual scoring after about 3 weeks vs untreated controls
Method in brief: as §2

[8] = tested on: STEME: Stellaria media; test: Post-emergence herbicidal efficacy at 1280 g/ha, STEME; details: visual rating about 3 weeks after treatment vs untreated controls
Method in brief: as §3

[9] = tested on: STEME: Stellaria media; test: Pre-emergence herbicide efficacy at 1280 g/ha, STEME; details: visual scoring vs untreated controls
Method in brief: as §2

[10] = tested on: ECHCG: Echinochloa crus-galli; test: Pre-emergence herbicide efficacy at 1280 g/ha, ECHCG; details: visual scoring after about 3 weeks vs untreated controls
Method in brief: as §2

[11] = tested on: ABUTH: Abutilon theophrasti; test: Post-emergence herbicidal efficacy at 1280 g/ha, ABUTH; details: rated visually after about 3 weeks vs untreated controls, 100% = plants have died, 0% = like control plants
Method in brief: as §3

[12] = tested on: VERPE: Veronica persica; test: Post-emergence herbicidal efficacy at 1280 g/ha, VERPE; details: visual rating about 3 weeks after treatment vs untreated controls
Method in brief: as §3

[13] = tested on: VERPE: Veronica persica; test: Pre-emergence herbicide efficacy at 1280 g/ha, VERPE; details: visual scoring vs untreated controls
Method in brief: as §2

[14] = tested on: ECHCG: Echinochloa crus-galli; test: Post-emergence herbicidal efficacy at 1280 g/ha, ECHCG; details: rated visually after about 3 weeks vs untreated controls, 100% = plants have died, 0% = like control plants
Method in brief: as §3

[15] = tested on: AMARE: Amaranthus retroflexus; test: Post-emergence herbicidal efficacy at 1280 g/ha, AMARE; details: rated visually after about 3 weeks vs untreated controls, 100% = plants have died, 0% = like control plants
Method in brief: as §3

[16] = tested on: ABUTH: Abutilon theophrasti; test: Pre-emergence herbicide efficacy at 1280 g/ha, ABUTH; details: visual scoring after about 3 weeks vs untreated controls
Method in brief: as §2

[17] = tested on: SETVI: Setaria viridis; test: Pre-emergence herbicide efficacy at 1280 g/ha, SETVI; details: visual scoring vs untreated controls
Method in brief: as §2

[18] = tested on: DIGSA: Digitaria sanguinalis; test: Pre-emergence herbicide efficacy at 1280 g/ha, DIGSA; details: visual scoring after about 3 weeks vs untreated controls
Method in brief: as §2

[19] = tested on: KCHSC: Kochia scoparia; test: Pre-emergence herbicide efficacy at 1280 g/ha, KCHSC; details: visual scoring after about 3 weeks vs untreated controls
Method in brief: as §2

[20] = tested on: KCHSC: Kochia scoparia; test: Post-emergence herbicidal efficacy at 1280 g/ha, KCHSC; details: visual rating about 3 weeks after treatment vs untreated controls
Method in brief: as §3

[21] = tested on: SETVI: Setaria viridis; test: Post-emergence herbicidal efficacy at 1280 g/ha, SETVI; details: visual rating about 3 weeks after treatment vs untreated controls
Method in brief: as §3

[22] = tested on: DIGSA: Digitaria sanguinalis; test: Post-emergence herbicidal efficacy at 1280 g/ha, DIGSA; details: rated visually after about 3 weeks vs untreated controls, 100% = plants have died, 0% = like control plants
Procedure: Seeds of mono- and dicotyledonous weed plants were placed in plastic pots in sandy loam soil (doubly sown with in each case one species of mono- or dicotyledonous weed plants per pot), covered with soil and cultivated in a greenhouse under controlled growth conditions. 2 to 3 weeks after sowing, the test plants were treated at the one-leaf stage. The compounds of the invention, formulated in the form of wettable powders (WP) or as emulsion concentrates (EC), were applied to the green parts of the plants as aqueous suspension or emulsion with addition of 0.5% additive at a water application rate equivalent to 600 litres per hectare. After the test plants had been kept in the greenhouse under optimum growth conditions for about 3 weeks, the activity of the preparations was rated visually in comparison to untreated controls. For example, 100% activity=the plants have died, 0% activity=like control plants. Tables A1 to A12 below show the effects of selected compounds of the general formula (I) according to Table 1 on various harmful plants and at an application rate corresponding to 1280 g/ha, which were obtained by the trial procedure specified above.

SMILES | Pre-emergence efficacy against AMARE [4] | Pre-emergence efficacy against MATIN [5] | Post-emergence efficacy against POAAN [6] | Pre-emergence efficacy against POAAN [7] | Post-emergence efficacy against STEME [8] | Pre-emergence efficacy against STEME in % [9] | Pre-emergence efficacy against ECHCG [10] | Post-emergence efficacy at 1280 g/ha against ABUTH in % [11] | Post-emergence efficacy against VERPE [12] | Pre-emergence efficacy against VERPE in % [13] | Post-emergence efficacy at 1280 g/ha against ECHCG in % [14] | Post-emergence efficacy at 1280 g/ha against AMARE in % [15] | Pre-emergence efficacy against ABUTH [16] | Pre-emergence efficacy against SETVI in % [17] | Pre-emergence efficacy against DIGSA [18] | Pre-emergence efficacy against KCHSC [19] | Post-emergence efficacy against KCHSC [20] | Post-emergence efficacy against SETVI [21] | Post-emergence efficacy at 1280 g/ha against DIGSA in % [22] | further results
O=S(=O)(CCCC(F)(F)F)Oc1c(F)cccc1Cc1ncc(Cl)cn1 [Example 1-14] |  |  |  |  |  |  |  |  |  |  |  |  |  |  |  |  |  |  |  | Post-emergence efficacy against AMARE [1]: 95%; Post-emergence efficacy against VERPE [2]: 95%; Pre-emergence efficacy against AMARE in % [3]: 90%
FC(F)(F)c1cnn(-c2ccccc2Cc2ncc(Cl)cn2)c1 [Example 1-42] | 100% | 90% | 90% | 90% | 90% | 100% | 90% | 90% | 90% | 90% | 90% | 100% | 100% | 100% | 100% | 100% |  |  |  | 
Clc1ccc(Cc2ccccc2Oc2ncc(Cl)cn2)nc1 [Example 1-91] | 100% | 100% | 100% | 100% | 100% | 100% | 90% | 100% | 100% | 100% |  | 100% | 100% | 100% | 100% | 100% | 100% | 90% | 90% | 
Fc1ccc(Cc2ccccc2Oc2ncc(Cl)cn2)nc1 [Example 1-92] | 100% | 100% | 100% | 100% | 100% | 100% | 100% | 90% | 100% | 100% |  | 100% | 100% | 100% | 100% | 100% | 100% | 100% | 90% | 
Fc1ccc(Sc2ccccc2Cc2ncc(F)cn2)cc1 [Example 1-104] | 100% | 100% | 100% | 100% | 100% | 100% | 100% | 100% | 100% | 100% | 100% | 100% | 100% | 100% | 100% |  | 100% | 90% | 100% | 
